According to paper PMC4451689, “A Novel Direct Factor Xa Inhibitory Peptide with Anti-Platelet Aggregation Activity from Agkistrodon acutus Venom Hydrolysates” (Scientific Reports, 2015):
Marks after values point to notes of the source that are not given here. Where a SMILES comes first, the peptide text is derived from it.

Key:
FXa [1] = target: T1, FXa (Homo sapiens, UniProt P00742); assay: Determination of the inhibitory constant for FXa (kinetics, Lineweaver-Burk); type: biochemical
Protocol: Figure 3 Kinetic activity of ACH-11 to FXa in vitro. Lineweaver-Burk plot (inset) for ACH-11 kinetics in PBS at pH 8.34 and 37 °C with mixed inhibition in the presence of different concentrations of ACH-11: 0 μM (slope of 0.376), 5 μM (slope of 0.528) and 10 μM (slope of 0.698). The plots represent the mean of 3 independent measurements.
Enzyme kinetic activity was assayed as described earlier, with minor modifications. All enzymatic reactions were carried out in PBS at pH 8.34 and at 37 °C. Freshly prepared FXa at a constant concentration of 1 nM was used in each reaction. ACH-11 was dissolved in 5% DMSO. Activities were measured for 4 different fixed concentrations of substrate (73.5, 147, 294 and 588 μM) in different concentrations of ACH-11 (0, 5 and 10 μM). The rates of the enzymatic reactions were monitored at 405 nm for 20 min using the Powerwave XS (Biotek, USA).

[2] = test system: ADP-induced rabbit platelet aggregation; assay: In vitro platelet aggregation assay, ADP-induced; type: cell-based; conditions: ADP 10 μM, rabbit PRP, turbidimetric, preincubated 5 min; 95% CI 185.36–225.02 μM
Protocol: (§1) Figure 5 ACH-11 inhibited ADP- and U46619-induced rabbit platelet aggregation in vitro. PRP was preincubated for 5 min with different concentrations of ACH-11 (0.1, 0.25, 0.5 and 1 mg/mL) or the vehicle. Platelet aggregation was initiated with ADP (10 μM), U46619 (6 μM), thrombin (3 U/mL) or collagen (2.5 μg/mL). Data are the mean ± SD (n = 3), ^****P < 0.0001 and ^*P < 0.05 versus vehicle, analyzed by one-way ANOVA, followed by the Tukey multiple comparison test.
(§2) Institute of Cancer Research (ICR) mice (18–22 g), Sprague-Dawley rats (180–250 g) and New Zealand white rabbits (2–2.5 kg) were purchased from Nanjing Qinglongshan Animal Center (Jiangsu province, China). They were housed in a temperature-controlled room at 25 ± 2 °C and 50 ± 5% relative humidity with a l2 h dark/light cycle. They were given free access to food and water ad libitum. The animals were acclimatized for at least 1 week prior to use. […]
(§3) In vitro platelet aggregation assays were performed according to the turbidimetric method, as described previously. […] The extent of platelet aggregation inhibition by ACH-11 was calculated by the following formula (2): [drawing 2] where X represents the maximum aggregation rate of 5% DMSO-treated PRP and Y represents the maximum aggregation rate of sample-treated PRP. […]

[3] = test system: U46619-induced rabbit platelet aggregation; assay: In vitro platelet aggregation assay, U46619-induced; type: cell-based; conditions: U46619 6 μM, rabbit PRP, turbidimetric, preincubated 5 min; 95% CI 415.62–525.95 μM
Protocol: as §1, §2, §3

bleeding time in mice = assay: Bleeding time (tail cutting method); type: in vivo; conditions: n = 10; for bleeding time: tail in saline 37 °C, 20-min recording, mean ± SD
Protocol: Fifteen minutes after the administration of ACH-11 (1, 3 and 9 mg/kg), aspirin (9 mg/kg for 30 min) and the vehicle, a 3 mm-long tail tip was cut from the mice, and the remaining tail was immersed immediately into saline at 37 °C. The accumulated bleeding time (including periods of re-bleeding) was recorded over a 20-min period. Data are presented as the mean ± SD (n = 10). ^****P < 0.0001, ^**P < 0.01 versus vehicle, analyzed by one-way ANOVA, followed by the Tukey multiple comparison test.
(§4) Institute of Cancer Research (ICR) mice (18–22 g), Sprague-Dawley rats (180–250 g) and New Zealand white rabbits (2–2.5 kg) were purchased from Nanjing Qinglongshan Animal Center (Jiangsu province, China). They were housed in a temperature-controlled room at 25 ± 2 °C and 50 ± 5% relative humidity with a l2 h dark/light cycle. They were given free access to food and water ad libitum. The animals were acclimatized for at least 1 week prior to use. All experiments were carried out in accordance with the guidelines and the regulations of the Ethical Committee of the China Pharmaceutical University. The protocols were approved by the Institutional Animal Care and Use Committee of the China Pharmaceutical University.
Bleeding time of the mice was measured by a tail cutting method as described previously. Mice were randomly divided into five groups (both sexes, 10 per group), including a vehicle group, a reference drug group (9 mg/kg of aspirin-treated) and three sample groups (1, 3 and 9 mg/kg of ACH-11-treated).

[4] = test system: arterio-venous shunt thrombosis in rats; assay: In vivo arterio-venous shunt thrombosis in rats; parameters: species or system Sprague-Dawley rats; conditions: aspirin 20 mg/kg, rat; mean ± SEM, n = 6
Protocol: Figure 6 ACH-11 inhibited arterio-venous shunt thrombosis in rats in vivo. After the administration of ACH-11 (0.33, 1 and 3 mg/kg), aspirin and the vehicle, rats were anesthetized by intraperitoneal injection of chloral hydrate (350 mg/kg), and an arterio-venous shunt tube (12 cm, containing 10-cm long of 4 braided silk thread) was installed between the right carotid artery and left jugular vein of each rat. After 20 min, the silk thread was removed from the shunt tube, and its wet weight was immediately measured. The dry weight of the thread was measured 6 h later at room temperature. The wet and dry weights of the formed thrombi were determined by subtracting the pre-experiment weights of the wet and dry 6-cm threads, respectively. Data are the mean ± SD, ^*P < 0.05, ^***P < 0.001 and ^****P < 0.0001 versus vehicle, n = 6, analyzed by one-way ANOVA, followed by the Tukey multiple comparison test. […]
Antithrombotic activity of ACH-11 in vivo was determined in a rat arterio-venous shunt thrombosis model as described previously[39] with a minor modification. […] Its wet weight was measured immediately. The dry weight of thread was measured 6 h later at room temperature. The wet and dry weights of the thrombi were determined by subtracting the pre-experimental weights of the wet and dry 6-cm threads, respectively.

[5] = test system: ADP-induced acute pulmonary thrombosis in mice; assay: ADP-induced acute pulmonary thrombosis in mice; type: in vivo, ICR mice; conditions: aspirin 20 mg/kg, ADP 300 mg/kg i.v.
Protocol: To examine whether ACH-11 exerted antithrombotic effects in vivo, the peptide was challenged in an acute pulmonary thrombosis model in mice. Aspirin, which is a clinical anti-thrombosis medicine that acts as a selective COX-1 inhibitor, was used as a positive control. In this model, small thrombi formed by intravenous injection of ADP (300 mg/kg) occluded pulmonary vessels, resulting in paralysis or death of the mice.
as §4
ADP-induced acute pulmonary thrombosis in mice was performed as described previously. Sixty ICR mice (18–22 g) were fasted overnight and randomly divided into 6 groups, with 10 mice per group (males and females in half). […]

FXa [6] = target: T1, FXa; assay: Inhibition of amidolytic activity of FXa (chromogenic substrate S-2222); type: biochemical; conditions: sample dissolved at 5 mg/mL, PBS pH 8.34, 37 °C, n = 3, compared with the other fractions/hydrolysates
Protocol: Figure 1 Selection of enzymatic hydrolysis conditions and bioassay-directed chromatographic separation of the FXa inhibitory peptide. (a) FXa inhibitory activities of Agkistrodon acutus venom hydrolysates obtained by treatment with pepsin, papain, neutrase and alcalase at 1, 2, 3, 4, 8, 12 h intervals. (b) Agkistrodon acutus venom hydrolysate produced by neutrase (3 h) was separated on a gel filtration column packed with Sephadex G-50 (2.6 × 100 cm). The hydrolysate was eluted by distilled water at a flow rate of 0.6 mL/min, collecting fractions of 3.6 mL. (c) The FXa inhibitory activities of fractions A-E. (d) Fraction C was separated on a Hedera ODS-2 column (20 × 250 mm). (e) The FXa inhibitory activities of fractions C1-C8. […]
The lyophilized neutrase hydrolysate (0.2 g) was dissolved in 10 mL of distilled water and applied to a Sephadex G-50 column (2.6 × 100 cm) equilibrated with distilled water and eluted with the same buffer at a flow rate of 0.6 mL/min. The eluents were monitored at 280 nm and were collected at 6 min intervals. […] The UV absorbance was monitored at 214 nm.
Inhibition of the amidolytic activity of FXa was analyzed by a method described previously, with minor modifications. Enzymatic activity was measured in PBS at pH 8.34 using the chromogenic substrate method. […] The absorbance-time curve and the slope of the curve (Vi) were used to represent the activity of the enzyme. […]

T1 sequence (P00742 235-488 limits assumed): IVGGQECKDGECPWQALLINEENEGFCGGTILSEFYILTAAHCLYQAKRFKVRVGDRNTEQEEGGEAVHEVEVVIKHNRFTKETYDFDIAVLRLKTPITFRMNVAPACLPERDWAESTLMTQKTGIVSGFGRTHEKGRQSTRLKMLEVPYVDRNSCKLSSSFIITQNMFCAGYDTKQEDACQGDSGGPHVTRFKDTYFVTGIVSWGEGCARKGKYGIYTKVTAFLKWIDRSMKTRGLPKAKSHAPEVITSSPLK
T1 sequence (P00742 41-179 partner limits assumed): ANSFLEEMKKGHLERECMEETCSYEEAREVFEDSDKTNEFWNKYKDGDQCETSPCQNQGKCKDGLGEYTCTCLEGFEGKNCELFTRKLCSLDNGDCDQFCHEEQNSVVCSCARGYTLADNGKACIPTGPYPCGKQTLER

`CC[C@H](C)[C@H](NC(=O)[C@H](CCCNC(=N)N)NC(=O)[C@@H]1CCCN1C(=O)[C@H](Cc1ccccc1)NC(=O)[C@@H](NC(=O)[C@@H](N)CC(C)C)[C@@H](C)O)C(=O)N[C@H](C(=O)N[C@@H](Cc1ccccc1)C(=O)N[C@H](C(=O)N[C@@H](CC(C)C)C(=O)NCC(=O)O)C(C)C)C(C)C` [ACH-11, LTFPRIVFVLG] (H-LTFPRIVFVLG-OH) was tested, and the Ki (FXa [1]; PBS pH 8.34, 37 °C, FXa 1 nM, S-2222 73.5-588 μM, ACH-11 0, 5, 10 μM, 5% DMSO, mixed inhibition, mean of 3 independent measurements, read-out: Ki value for FXa inhibition towards S-2222) was 9.02 µM, the “change in Vmax and Km of FXa towards S-2222” value (FXa [1]; in the presence of ACH-11, PBS pH 8.34, 37 °C) was “A decrease in the Vmax value with a subsequent increase in the Km value” and the IC50 [2] was 204 µM. For the same compound, the IC50 [3] was 468 µM, the bleeding time (bleeding time in mice; ACH-11 1 mg/kg, 15 min after administration) was 10.71 ± 2.98 min and the bleeding time (bleeding time in mice; ACH-11 3 mg/kg, 15 min after administration) was 11.73 ± 2.68 min. The bleeding time (bleeding time in mice; ACH-11 9 mg/kg, 15 min after administration) was 14.01 ± 1.88 min and the “bleeding time (effect in words)” value (bleeding time in mice; ACH-11 3 and 1 mg/kg, compared with vehicle) was “did not significantly prolong the bleeding time”.

With `CC(=O)Oc1ccccc1C(=O)O` [Aspirin, aspirin] the “reduction of thrombus weight” value [4] was 59.10 ± 2.98%, the Numbers of lethal/total ([5]; vehicle 9/10, P = 0.0055 versus vehicle) was 2/10 and the Protection rate ([5]; vehicle 10%, P = 0.0055 versus vehicle, n = 10) was 80^** %. It also gave a bleeding time (bleeding time in mice; aspirin 9 mg/kg, 30 min after administration) of 17.03 ± 2.86 min.

In the case of “LTFPRIVFVLG [fraction C4, RP-HPLC fraction of fraction C, purity greater than 96%; peptide … (natural ACH-11)]”, the “FXa inhibitory activity (in words)” value (FXa [6]) is reported as “displayed the highest FXa inhibitory activity”.
